Assay [1] relates to HUVEC cells. Description: MTT cytotoxicity assay of yCD series protein combined with 5-FC. The format is cell-based. The note with it: Homo sapiens, 5-FU alone. The method, then:
(§1) The cell viability was determined by MTT assay. The seeded HUVEC cells shown in FIG. 7A, the seeded U87MG cells shown in FIG. 7B and the 96 wells of seeded MCF-7 cells shown in FIG. 7C are respectively added with 500 nM RGD4C-yCD, yCD, RGD4C-yCD/UPRT and yCD/UPRT recombinant protein, after removing the recombinant protein not bound with the cells and washing the cells, add 5-FC with different concentrations and observe the cell killing effect. Cells of the control groups were only incubated with different concentrations of 5-FU or 5-FC without protein treatment.
(§2) In this experiment, the MTT assay is applied to measure cytotoxicity induced by RGD4C-yCD/5-FC and RGD4C-yCD/UPRT/5-FC of the targeted prodrug enzyme fusion protein. In 96-well plate of seeded cells is respectively added with recombinant proteins such as 500 nM RGD4C-yCD, yCD, RGD4C-yCD/UPRT and yCD/UPRT, and co-cultured at 37° C. for 2 hours. The recombinant proteins not bound with cells are discarded. The cells were washed, and then were treated with different concentrations of 5-FC for observing the effect of cytotoxicity. On the other hand, the cells only treated with different concentrations of 5-FC and 5-FU separately as the control group.

For assay [2], the system named is U87MG cells. The assay is described as above. The class given is cell-based. The note with it: Homo sapiens, U-87 MG, 5-FU alone. The method, then:
as §1, §2

For assay [3], the system named is MCF-7 cells. The assay is described as above. The class given is cell-based, human. The protocol: as §1, §2
The subject of the next assay is HUVEC and U87MG cells. Description: TUNEL apoptosis assay of yCD series fusion protein combined with 5-FC. Particulars: 500 nM protein, 100 μM 5-FC or 5-FU, 72 hours. The format is cell-based, human. The protocol: FIGS. 9A-9D show the cell apoptosis assay of the yCD series fusion protein combined with 5-FC in HUVEC and U87MG cells. […] And then TUNEL assay kit was used to detect the cell apoptosis (red signal: DNA fragment detected by TUNEL assay kit; blue signal: Hoechst 33342 cell nuclear stain). Cells of the control groups were only incubated with different concentrations of 5-FU or 5-FC without protein treatment. […] (*P value<0.05; Calibration scale: 20 μm)
Previous literature pointed out that 5-FU can promote apoptosis by inhibiting the synthesis of cellular DNA. This experiment is performed on apoptosis analysis to evaluate whether the enzyme precursor treatment system of RGD4C-yCD/5-FC and RGD4C-yCD/UPRT/5-FC can kill the cells by apoptotic mechanism. HUVEC and U87MG cells are co-cultured with culture medium containing 500 nM RGD4C-yCD and RGD4C-yCD/UPRT protein for 2 hours at 37° C., remove and wash the unbound or endocytic proteins, add 100 μM 5-FC or 5-FU, after acting for 72 hours, the DNA fragment of the apoptosis is stained with fluorescence by TUNEL assay analysis set, and the apoptosis is observed by conjugated fluorescence microscope. […] Furtherly, TUNEL fluorescence signals are quantified by image analysis software MetaMorph. […]

The subject of assay [4] is MCF-7 cells. Nature of the assay: MTT cytotoxic test of EcCD series fusion protein (50 nM) coupled with 5-FC. The format is cell-based. The note with it: Homo sapiens, MCF7, 5-FU alone, 72 hours. The protocol:
(§3) Relative cell viability was measured by MTT assay. The 50 nM EcCD series fusion protein is applied to U87MG, HUVEC and MCF-7 cells at 37° C. for 2 hours, after washing the unbound protein with PBS.

The test system of assay [5] is U87MG cells. The assay is described as above. The class given is cell-based. The note with it: Homo sapiens, U-87 MG, 5-FU alone, 72 hours. The protocol: as §3
The test system of assay [6] is HUVEC cells. Described as above. The format is cell-based, human. The note with it: 5-FU alone. The method, then: as §3

Structures are written as SMILES.

Regarding `O=c1[nH]cc(F)c(=O)[nH]1` [5-FU, 5-fluorouracil], the IC50 came to 1.6 ± 0.2 µM with HUVEC cells [1]; 1.6 ± 0.3 µM in the assay with U87MG cells [2]; 2.2 ± 0.3 µM in the assay on MCF-7 cells [3] (5-FU alone); 2.1 ± 0.3 µM in the assay on MCF-7 cells [3] (Homo sapiens, MCF7, 5-FU alone); 25.6 ± 0.3 µM with MCF-7 cells [4]; 6.5 ± 0.2 µM in the assay with U87MG cells [5]. In addition, the IC50 turned out to be 6.2 ± 1.3 µM with HUVEC cells [6] (72 hours) and 6.5 ± 1.3 µM with HUVEC cells [6] (Homo sapiens, 72 h). Further, the “apoptosis (TUNEL, words)” value in the assay with HUVEC and U87MG cells is “a large amount of apoptosis”.

The record behind these values is US10947270B2, “Targeted prodrug cytosine deaminase fusion carrier and application thereof” (National Yang-Ming University, priority 2015, dated 2021).
